Results from patent US9073903B2, “Imidazole-2,4-dione inhibitors of casein kinase 1” (Jasco Pharmaceuticals, LLC, priority 2010, dated 2015).
Like-named read-outs stand apart in the source and are kept apart here.

Assays:
[1] = test system: HCT116 cells; experiment: Inhibition of HCT116 cells (MTS cell proliferation); type: cell-based; conditions: for OD value 1 / OD value 2: 490 nm; for OD value 1 / OD value 2 / inhibition at 0.4 µM / inhibition at 0.8 µM / inhibition at 1.6 µM / inhibition at 3.2 µM / inhibition at 6.25 µM / inhibition at 12.5 µM / inhibition at 25 µM / inhibition at 50 µM / inhibition at 100 µM: 72 h; for inhibition at 0.4 µM / inhibition at 0.8 µM / inhibition at 1.6 µM / inhibition at 3.2 µM / inhibition at 6.25 µM / inhibition at 12.5 µM / inhibition at 25 µM / inhibition at 50 µM / inhibition at 100 µM / IC50: Homo sapiens, HCT-116
Experimental: Inhibition of HCT116 Cells Cells: HCT116 cells, ATCC Passage unknown, Mycoplasma free. Medium: DMEM Medium (GIBCO Cat #11995073) supplemented with 10% fetal bovine serum (Hyclone Cat #SH30396.03). Seeding: 750 cells/well (100 μL) into 96-wells plate, incubated overnight at 37° C. in a humidified, 5% CO2 atmosphere. Treatment: Test compounds and Gemcitabine were prepared in a serial dilution (1:2) by culture medium. Fifty microliters (50 uL) of serially diluted solutions were added into each well. The final concentrations of the positive control and test compounds were shown in the graphs. The cells were incubated for 72 hours after addition of the test compounds. MTS: 15 uL of MTS solution (Promega Cat #G5430) was added into each well and incubated with cells for 4 hours at 37° C. in a humidified, 5% CO2 atmosphere. Measurement: Absorbance at 490 nm was measured using MD Spectramax Plus384 spectrophotometer. The regression curves were calculated by the GraphPad Prism 5 using “log(inhibitor) vs response—variable slope”. Calculation: % of inhibition=(ODzero ctrl−OD compound)/ODzero ctrl*100.

[2] = test system: PC-3 cells; experiment: Inhibition of PC-3 cells (MTS cell proliferation); type: cell-based; conditions: for OD value 1 / OD value 2: 490 nm; for OD value 1 / OD value 2 / inhibition at 0.4 µM / inhibition at 0.8 µM / inhibition at 1.6 µM / inhibition at 3.2 µM / inhibition at 6.25 µM / inhibition at 12.5 µM / inhibition at 25 µM / inhibition at 50 µM / inhibition at 100 µM: 72 h; for inhibition at 0.4 µM / inhibition at 0.8 µM / inhibition at 1.6 µM / inhibition at 3.2 µM / inhibition at 6.25 µM / inhibition at 12.5 µM / inhibition at 25 µM / inhibition at 50 µM / inhibition at 100 µM / IC50: Homo sapiens, PC-3
Experimental: Inhibition of PC-3 Cells: Cells: PC-3 cells, ATCC Passage unknown, Mycoplasma free. Medium: DMEM Medium (GIBCO Cat #11995073) supplemented with 10% fetal bovine serum (Hyclone Cat #SH30396.03). Seeding: 3,000 cells/well (100 ul) into 96-wells plate, incubated overnight at 37° C. in a humidified, 5% CO2 atmosphere. Treatment: Test compounds and Gemcitabine were prepared in a serial dilution (1:2) by culture medium. Fifty microliters (50 uL) of serially diluted solutions were added into each well. The final concentrations of the positive control and test compounds were shown in the graphs. The cells were incubated for 72 hours after addition of the test compounds. MTS: 15 uL of MTS solution (Promega Cat #G5430) was added into each well and incubated with cells for 4 hours at 37° C. in a humidified, 5% CO2 atmosphere. Measurement: Absorbance at 490 nm was measured using MD Spectramax Plus384 spectrophotometer. The regression curves were calculated by the GraphPad Prism 5 using “log(inhibitor) vs response—variable slope”. Calculation: % of inhibition=(ODzero ctrl−OD compound)/ODzero ctrl*100.

[3] = 0.400 uM, replicate 1, read-out: % of inhibition 1
[4] = 0.400 uM, replicate 2, read-out: % of inhibition 2
[5] = 0.800 uM, replicate 1, read-out: % of inhibition 1
[6] = 0.800 uM, replicate 2, read-out: % of inhibition 2
[7] = 1.600 uM, replicate 1, read-out: % of inhibition 1
[8] = 1.600 uM, replicate 2, read-out: % of inhibition 2
[9] = 3.200 uM, replicate 1, read-out: % of inhibition 1
[10] = 3.200 uM, replicate 2, read-out: % of inhibition 2
[11] = 6.250 uM, replicate 1, read-out: % of inhibition 1
[12] = 6.250 uM, replicate 2, read-out: % of inhibition 2
[13] = 12.500 uM, replicate 1, read-out: % of inhibition 1
[14] = 12.500 uM, replicate 2, read-out: % of inhibition 2
[15] = 25.000 uM, replicate 1, read-out: % of inhibition 1
[16] = 25.000 uM, replicate 2, read-out: % of inhibition 2
[17] = 50.000 uM, replicate 1, read-out: % of inhibition 1
[18] = 50.000 uM, replicate 2, read-out: % of inhibition 2
[19] = 100.000 uM, replicate 1, read-out: % of inhibition 1
[20] = 100.000 uM, replicate 2, read-out: % of inhibition 2

Nc1ccn([C@@H]2O[C@H](CO)[C@@H](O)C2(F)F)c(=O)n1 [Gemcitabine]
OD value 1 ([1]; 0.400 uM, replicate 1): 0.799 | OD value 2 ([1]; 0.400 uM, replicate 2): 0.766 | OD value 1 ([1]; 0.800 uM, replicate 1): 0.619 | OD value 2 ([1]; 0.800 uM, replicate 2): 0.723 | OD value 1 ([1]; 1.600 uM, replicate 1): 0.452 | OD value 2 ([1]; 1.600 uM, replicate 2): 0.535 | OD value 1 ([1]; 3.200 uM, replicate 1): 0.083 | OD value 2 ([1]; 3.200 uM, replicate 2): 0.083 | OD value 1 ([1]; 6.250 uM, replicate 1): 0.076 | OD value 2 ([1]; 6.250 uM, replicate 2): 0.065 | OD value 1 ([1]; 12.500 uM, replicate 1): 0.065 | OD value 2 ([1]; 12.500 uM, replicate 2): 0.063 | OD value 1 ([1]; 25.000 uM, replicate 1): 0.075 | OD value 2 ([1]; 25.000 uM, replicate 2): 0.061 | OD value 1 ([1]; 50.000 uM, replicate 1): 0.036 | OD value 2 ([1]; 50.000 uM, replicate 2): 0.046 | OD value 1 ([1]; 100.000 uM, replicate 1): 0.037 | OD value 2 ([1]; 100.000 uM, replicate 2): 0.037 | inhibition at 0.4 µM [1, 3]: 18.8% | inhibition at 0.4 µM [1, 4]: 20.9% | inhibition at 0.8 µM [1, 5]: 37.2% | inhibition at 0.8 µM [1, 6]: 25.3% | inhibition at 1.6 µM [1, 7]: 54.1% | inhibition at 1.6 µM [1, 8]: 44.7% | inhibition at 3.2 µM [1, 9]: 91.6% | inhibition at 3.2 µM [1, 10]: 91.4% | inhibition at 6.25 µM [1, 11]: 92.3% | inhibition at 6.25 µM [1, 12]: 93.3% | inhibition at 12.5 µM [1, 13]: 93.4% | inhibition at 12.5 µM [1, 14]: 93.5% | inhibition at 25 µM [1, 15]: 92.4% | inhibition at 25 µM [1, 16]: 93.7% | inhibition at 50 µM [1, 17]: 96.4% | inhibition at 50 µM [1, 18]: 95.2% | inhibition at 100 µM [1, 19]: 96.3% | inhibition at 100 µM [1, 20]: 96.2% | IC50 ([1]; Table 17, read-out: HCT-116* 50% inhibition concentration): 1290 nM | IC50 ([1]; Table 26, HCT116, 72 hours, read-out: 50% viability conc.): 1290 nM | IC50 ([1]; Table 26, HCT116, 72 hours, read-out: IC50): 1420 nM | Maximal inhibition % ([1]; Table 26, HCT116, 72 hours): 96.25% | OD value 1 ([2]; 0.400 uM, replicate 1): 0.884 | OD value 2 ([2]; 0.400 uM, replicate 2): 0.866 | OD value 1 ([2]; 0.800 uM, replicate 1): 0.860 | OD value 2 ([2]; 0.800 uM, replicate 2): 0.803 | OD value 1 ([2]; 1.600 uM, replicate 1): 0.794 | OD value 2 ([2]; 1.600 uM, replicate 2): 0.778 | OD value 1 ([2]; 3.200 uM, replicate 1): 0.726 | OD value 2 ([2]; 3.200 uM, replicate 2): 0.756 | OD value 1 ([2]; 6.250 uM, replicate 1): 0.686 | OD value 2 ([2]; 6.250 uM, replicate 2): 0.692 | OD value 1 ([2]; 12.500 uM, replicate 1): 0.617 | OD value 2 ([2]; 12.500 uM, replicate 2): 0.628 | OD value 1 ([2]; 25.000 uM, replicate 1): 0.572 | OD value 2 ([2]; 25.000 uM, replicate 2): 0.583 | OD value 1 ([2]; 50.000 uM, replicate 1): 0.458 | OD value 2 ([2]; 50.000 uM, replicate 2): 0.488 | OD value 1 ([2]; 100.000 uM, replicate 1): 0.246 | OD value 2 ([2]; 100.000 uM, replicate 2): 0.214 | inhibition at 0.4 µM [2, 3]: 2.1% | inhibition at 0.4 µM [2, 4]: 1.92% | inhibition at 0.8 µM [2, 5]: 4.8% | inhibition at 0.8 µM [2, 6]: 9.05% | inhibition at 1.6 µM [2, 7]: 12% | inhibition at 1.6 µM [2, 8]: 11.9% | inhibition at 3.2 µM [2, 9]: 19.7% | inhibition at 3.2 µM [2, 10]: 14.3% | inhibition at 6.25 µM [2, 11]: 24.1% | inhibition at 6.25 µM [2, 12]: 21.7% | inhibition at 12.5 µM [2, 13]: 31.7% | inhibition at 12.5 µM [2, 14]: 28.9% | inhibition at 25 µM [2, 15]: 36.7% | inhibition at 25 µM [2, 16]: 34% | inhibition at 50 µM [2, 17]: 49.3% | inhibition at 50 µM [2, 18]: 44.5% | inhibition at 100 µM [2, 19]: 72.8% | inhibition at 100 µM [2, 20]: 75.8% | IC50 ([2]; Table 18, read-out: PC-3* 50% inhibition concentration): 41.3 µM | IC50 ([2]; Table 26, 72 hours, read-out: 50% viability conc.): 41.3 µM
